This is an account of results in PMC9977398, “Next-generation membrane-active glycopeptide antibiotics that also inhibit bacterial cell division” (Chemical Science, 2023).

Molecules are shown by their SMILES. Read-outs that look alike come from different tables or passages of the source.

Series [1] in a line: In-vivo toxicity in mice (LD50). Also on record: species or system Balb/c female mice. The settings on record: for LD50: single injection, 14 days. As for the experimental part:
The in vitro activity, low toxicity, and stability in plasma and liver homogenate, supported the potential of VanQAmC10 as a candidate for the treatment of bacterial infections. The efficacy of VanQAmC10 (8) against MRSA was tested in a neutropenic mouse thigh infection model. Infection was established by injecting them with 5 × 10^5 CFU of MRSA in the thigh. 1 h and 13 h post-infection, mice were treated with 12 mg kg^−1 of vancomycin and VanQAmC10 administered intraperitoneally (Fig. 6B). The mice were sacrificed 24 h post-infection. […] In the untreated group, the bacterial load increased to 8 log CFU g^−1. […] However, treatment with VanQAmC10 reduced the bacterial load to 3.3 log CFU g^−1, which is a 1.5 log CFU g^−1 lower bacterial load than observed against vancomycin.
(§1) Table S1: Activity of VanQAmC10 in mouse plasma and liver homogenate against MRSA […]
MIC of VanQAmC10 post incubation in (μM)
Bacteria Plasma Liver homogenate Media […]
when administered subcutaneously. […]
of VanQAmC10 as compared to the previously developed molecule, VanQC14.3 This reduced toxicity of VanQAmC10 can be attributed to the presence of the amide spacer between the cationic moiety and the alkyl chain as mentioned in the previous section.
Table S2 In-vivo toxicity (LD50 values) of VanQAmC10 by various modes of administration Mode of administration LD 50 (mg/kg)
All reagents were purchased from Sigma-Aldrich and Spectrochem and used without further purification. All the solvents of reagent grade were purchased from Spectrochem and SD Fine.
Chloroform for column chromatography was purchased from SD Fine chemicals and distilled prior to use. HPLC grade acetonitrile was purchased from Spectrochem. Analytical thin layer chromatography (TLC) was performed on E. Merck TLC plates pre-coated with silica gel 60 F254 (250 μm thickness). Vancomycin derivative was purified by reverse phase HPLC using 0.1 % trifluoroacetic acid (TFA) in water/acetonitrile (0-100 %) as mobile phase. HPLC […]
The doses for administration, were given modified OECD guidelines. LD50 was determined using Spearman-Karber method. […]

The conditions of series [2]: mice, intravenous injection; cited from earlier work.
The test system of series [3] is carbapenem-resistant A. baumannii. Put plainly: Murine chronic burn-wound infection model. Type of series: in vivo, mice. Particulars: 30 mg kg^−1 topically for 5 days; untreated 8 log CFU g^−1. As for the experimental part: Fig. 6 (A) Propensity of vancomycin and VanQAmC10 to induce resistance in MRSA upon serial exposure to sub-MIC concentrations; (B) (i) experimental design for in vivo efficacy study in a murine thigh infection model, (ii) in vivo efficacy of VanQAmC10 and vancomycin against the multidrug-resistant methicillin-resistant S. aureus (MRSA) (n = 3/dose). Antibiotics were administered intraperitoneally twice at 12 h intervals at a dose of 12 mg kg^−1. (C) (i) Experimental design for in vivo efficacy study in murine burn wound infection model, (ii) in vivo efficacy of VanQAmC10 and colistin against the carbapenem-resistant A. baumannii (n = 5/dose, 1 mouse died in untreated control). VanQAmC10 and colistin were treated topically at 30 mg kg^−1 for 5 days (‘***’ indicates p < 0.0001, ‘**’ indicates p < 0.001, ‘*’ p < 0.05, p = 0.08 (n.s.) for VanQAmC10 with respect to vancomycin).
Further, the efficacy of VanQAmC10 (8) was tested in a chronic burn-wound infection model of A. baumannii.[40] Chronic burn wounds on the back of mice were infected with A. baumannii. […] Infected mice were treated with 30 mg kg^−1 of VanQAmC10 and colistin for five days consecutively. The bacterial load in the untreated group increased to 8 log CFU g^−1 six days post-infection. […] The use of colistin is however limited due to its toxicity and bacteria easily develop resistance to it. […]

The next series concerns MRSA ATCC 33591. The experiment in a line: Activity in blood plasma and liver homogenate. The settings on record: for MIC: Staphylococcus aureus. It is filed as cell-based, S. aureus. As for the experimental part:
as §1
MIC of VanQAmC10 post incubation in (μM) […]
Activity in blood plasma and liver homogenate
To examine the susceptibility of VanQAmC10 to serum proteases, the antibacterial activities was tested in the presence of 50% of plasma and liver homogenate. Briefly, 250 μL of VanQAmC10 was added into 250 μL of fresh […] plasma and incubated at 37 °C. An aliquot of the samples 3 h and 24h post-incubation was diluted in 0.9% saline and the antibacterial activity (MIC) were determined against MRSA and VRE by following the same protocol as described above for the antibacterial assay. […]
50 μL of ∼10^6 CFU/mL bacterial inoculum (MRSA ATCC33591) was injected into the thigh. 1 h post-inoculation, animals were treated intraperitoneally twice with 12 h intervals with saline, vancomycin (12 mg kg−1), and VanQAmC10 (12 mg kg−1). 24 h post the first treatment, the animals were euthanized (using ether) and the thighs were collected aseptically. The thigh tissue was weighed and homogenized. The dilutions of the homogenate were plated onto agar plates, which were incubated overnight at about 37 °C. […]
In-vivo activity in murine burn wound infectionmodel 10-12

For orientation: LD50 means the dose at which mortality reaches 50%. As usually defined, the MIC is the smallest concentration in the dilution series that meets the test's criterion for growth inhibition. With `CCCCCCCCCCNC(=O)C[N+](C)(C)CCCNC(=O)C1NC(=O)C2NC(=O)C(NC(=O)C3NC(=O)C(CC(N)=O)NC(=O)C(NC(=O)C(CC(C)C)NC)C(O)c4ccc(c(Cl)c4)Oc4cc3cc(c4OC3OC(CO)C(O)C(O)C3OC3CC(C)(N)C(O)C(C)O3)Oc3ccc(cc3Cl)C2O)c2ccc(O)c(c2)-c2c(O)cc(O)cc21` (stereo not drawn) [VanQAmC10 (8)], in series [1] (intraperitoneal), the “dose well tolerated, all mice survived” value came to 130 mg/kg. The LD50 result in series [1] (intraperitoneal) was “greater than 130 mg/kg”; in series [1] (subcutaneous), “greater than 160 mg kg^−1”; in series [2], 70 mg/kg. Also, the “lower bacterial load as compared to the untreated mice” value in series [3] is reported as 2.2 log CFU g^−1. The “change of MIC in plasma and liver homogenate” value in the series with MRSA ATCC 33591 (MRSA) is listed as “remained unchanged”. In addition, the minimum inhibitory concentration (MIC) worked out at 0.4 µM with MRSA ATCC 33591 (read-out: MIC post incubation in plasma); 0.4 µM with MRSA ATCC 33591 (MRSA ATCC 33591, read-out: MIC post incubation in liver homogenate); 0.4 µM in the series with MRSA ATCC 33591 (MRSA ATCC 33591, read-out: MIC post incubation in media).
